Experimental data: PMC7998731, “Pharmacokinetic Characterization of Supinoxin and Its Physiologically Based Pharmacokinetic Modeling in Rats” (Pharmaceutics, 2021)
Read-outs that look alike come from different tables or passages of the source.

Key:
Assay type in all cases: in vitro ADME
[1] = Transport of supinoxin in Caco-2 cells (bidirectional permeability); details: human
Procedure: The Caco-2 intestinal epithelial cell line (ATCC® HTB-37™) purchased from American Type Culture Collection (ATCC, Manassas, VA, USA) was cultured and maintained in Dulbecco’s modified Eagle medium (DMEM) containing 10% fetal bovine serum, 100 U/mL penicillin, and 0.1 mg/mL streptomycin under humidified atmosphere of air containing 5% CO2 at 37 °C. Caco-2 cells were seeded at a density of 6 × 10^4 cells/cm^2 onto polyethylene membranes of transwell plates (Corning Costar, Cambridge, MA, USA). The medium was replaced on alternate days after seeding, and cell monolayers were used for the transport assay after approximately 21 days of culture. Trans-epithelial electrical resistance (TEER) values of the Caco-2 monolayers were measured with an EVOM epithelial tissue voltmeter (World Precision Instruments, Sarasota, FL, USA), and cells with TEER greater than 300 Ω were used for the experiments. Cell monolayers were first rinsed three times with transport buffer (Hank’s balanced salt solution supplemented with 10 mM HEPES) and preincubated for 30 min at 37 °C. To measure the bidirectional transport of the compound, a transport buffer containing 1 µM supinoxin was added to the respective donor compartments (the apical and basolateral sides for absorptive and secretory transport assays, respectively). Samples (200 µL) were collected at 30, 60, 90, and 120 min, and an identical volume of fresh buffer was replenished. The samples were then subjected to LC–MS/MS analysis and concentrations of the samples were determined. After the final sampling from both compartments, we measured the TEER of the monolayers to ensure no possible adverse effects induced by the experimental procedures and then estimated the apparent permeability coefficient of supinoxin from the compound’s time-dependent accumulation (dQ/dt) in the receiver compartments using the following equation: Papp = dQ/dt × 1/(A × C0)(1) where dQ/dt is the rate of transport, A is the surface area of the filter, and C0 is the initial concentration in the donor chamber.

[2] = Plasma protein binding by Rapid Equilibrium Dialysis; details: rat plasma
Procedure: (§1) To determine the unbound fraction of supinoxin in the plasma, a protein binding study was carried out using the Rapid Equilibrium Dialysis (RED) method. Following the manufacturer’s protocol (Thermo Fisher Scientific, San Jose, CA, USA), supinoxin was added to a plasma aliquot to produce a final concentration of 1 µg/mL. A plasma aliquot containing supinoxin (200 µL) and buffer (350 µL) was added to the sample chamber and the buffer chamber, respectively. When necessary, supinoxin was added to the microsomal incubation mixture (0.5 mg of protein per mL in potassium phosphate buffer) to produce final concentrations of 1 µM. The plate was covered and agitated on an orbital shaker at approximately 250 rpm at 37 °C. Aliquots (25 µL) of the plasma and buffer were collected at 4, 8, 18, and 24 h, and the samples were subjected to LC–MS/MS analysis. The fraction of supinoxin bound to plasma protein was estimated as follows:Percent bound (%) = [1 − (concentration in buffer/concentration in plasma)] × 100%(5)

[3] = Unbound fraction in microsomal incubation mixture (Rapid Equilibrium Dialysis); details: rat, liver microsomes 0.5 mg protein/mL
Procedure: as §1

[4] = Metabolic stability in rat liver microsomes
Procedure: In these experiments, the metabolic stability of supinoxin in rat liver microsomes (BD Biosciences, San Jose, CA, USA) was determined. The microsomal reaction mixture comprised the follows: liver microsomal protein (final concentration of 0.5 mg protein per mL reaction mixture) and an NADPH regenerating solution (1.3 mM NADP+, 3.3 mM glucose-6-phosphate, 0.4 U/mL glucose-6-phosphate dehydrogenase, and 3.3 mM MgCl2) in a 100 mM potassium phosphate buffer with a pH of 7.4. After 5 min preincubation of the reaction mixture in a water bath at 37 °C, the reaction was initiated by the addition of a supinoxin solution to obtain a final concentration of 1 µM. Aliquots (50 µL) of the mixture were sampled at 5, 15, 30, and 60 min after the initiation of the reaction. The reaction was terminated by adding a stop solution (200 µL of ice-chilled acetonitrile) to the sample immediately after collection. After mixing by vortexing and centrifugation of the mixtures at 15,000× g for 5 min, an aliquot (150 µL) of the supernatant was analyzed by LC–MS/MS assay. In addition, the metabolic stability of supinoxin was determined in the presence of UDP glucuronic acid under similar reaction conditions, except that uridine 5′-diphosphoglucuronic acid was added instead of the NADPH regenerating solution. Finally, metabolic stability of supinoxin was tested in concentration range of 0.1–10 μM to confirm that the concentration used in the study (1 μM) was below the Km for the metabolic reaction. The amount of sample remaining was plotted against the reaction time to determine the metabolic rate constant of the reaction. Assuming that the substrate concentration was below the Km for the metabolic reaction, the intrinsic clearance was calculated as follows:(6) CLint= Aprotein×ke/fu,mic·Cprotein where Aprotein is the total amount of liver microsomal protein, ke is the metabolic rate constant of the reaction, fu,mic is the unbound fraction of the drug in the reaction mixture, and Cprotein is the microsomal protein concentration (mg/mL) in the reaction mixture. In this calculation, an Aprotein of 1790 mg of protein per kg for rats was used.
When necessary, the hepatic clearance of the compound was calculated using a well-stirred model as follows: (7) CLh= Q·CLint·fu,p/Q+CLint·fu,p/R where Q is the hepatic blood flow, fu,p is the unbound fraction of the drug in the plasma, and R is the blood-to-plasma partition ratio. In this calculation, a hepatic blood flow of 14.5 mL/min for 250 g rat was used, and the blood-to-plasma partition ratio was assumed to be 1.

COc1cc(OC)cc(N2CCN(C(=O)Nc3nc4cc(F)ccc4nc3OC)CC2)c1 [supinoxin, 1-(3,5-Dimethoxyphenyl)-4-[(6-Fluoro-2-Methoxyquinoxalin-3-yl) Aminocarbonyl] Piperazine]
Papp A→B at 120 min, 1 µM ([1]; Caco-2, Caco-2 cell monolayers, supinoxin 1 µM, read-out: apical to basolateral apparent permeability coefficient): 18.5 ± 2.4 ×10⁻⁶ cm/s | Papp A→B at 120 min, 1 µM ([1]; Caco-2, PBPK input parameter, Determined, read-out: Caco-2 permeability): 18.5 ×10⁻⁶ cm/s | efflux ratio at 120 min, 1 µM ([1]; Caco-2 cell monolayers): 1.24 | Papp B→A at 120 min, 1 µM ([1]; Caco-2 cell monolayers, supinoxin 1 µM, read-out: basolateral to apical apparent permeability coefficient): 22.6 ± 1.8 ×10⁻⁶ cm/s | fraction unbound at 4 h, 1 µg/mL ([2]; 1 µg/mL, 4 h incubation): 0.023 ± 0.0025 | fraction unbound at 8 h, 1 µg/mL ([2]; 1 µg/mL, 8 h incubation): 0.0283 ± 0.0019 | fraction unbound at 24 h, 1 µg/mL ([2]; 1 µg/mL, 24 h incubation): 0.0354 ± 0.0055 | fraction unbound at 1 µg/mL ([2]; as fraction, Determined, read-out: Fraction unbound in plasma (fu)): 0.0363 | fraction unbound at 18 h, 1 µM ([3]; liver microsomal incubation mixture, 18 h incubation): 0.623 ± 0.016 | fraction unbound at 4 h, 1 µM ([3]; 4 h incubation): 0.518 ± 0.025 | fraction unbound at 8 h, 1 µM ([3]; 8 h incubation): 0.57 ± 0.017 | fraction unbound at 24 h, 1 µM ([3]; 24 h incubation): 0.615 ± 0.046 | half-life at 1 µM ([4]; pH 7.4, rat liver microsomes, NADPH, 1 µM, read-out: NADPH-dependent metabolic half-life): 17.1 min | CLint scaled at 1 µM ([4]; pH 7.4, rat liver microsomes, NADPH, 1 µM, read-out: intrinsic clearance (converted)): 233 mL/min/kg | remaining amount at the end of the 60-min incubation ([4]; rat liver microsomes, NADPH, 1 µM): 12.7 ± 0.1 % of the initial | remaining amount in UDPGA-dependent metabolic stability study ([4]; rat liver microsomes, UDPGA, 1 µM, 60 min): 92.2 ± 0.1% | half-life versus concentration ([4]; rat liver microsomes, concentration ranges of 0.1–1 μM): remained constant | hepatic clearance as share of the total in vivo clearance ([4]; vs average clearance of 0.5–5 mg/kg intravenous administration): 58.5% | hepatic clearance ([4]; well-stirred model, from rat liver microsomal incubation): 443 mL/h/kg
